In test [1] the target is T1, human recombinant HDAC1 (Homo sapiens, UniProt Q13547).
T1 construct: purchased Enzolifesciences BML-SE456
Briefly: HDAC1 enzyme activity inhibition (HDAC1 Fluorimetric Drug Discovery Assay Kit, in vitro). The note with it: samples at 100, 1000 and 10000 nM. Type of test: biochemical. The gist of the method: (§1)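 Recombinant human HDAC1 or HDAC6 (0.3 μg) with Fluor de Lys-SIRT1 substrate at […], 60 min at 37 °C, then developer 30 min; fluorescence Ex 360/Em 460. Compounds at 100–10000 nM for HDAC1 and 0.1–1000 nM for HDAC6; IC50 calculated.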

In test [2] the target is T2, human recombinant HDAC6 (Homo sapiens, UniProt Q9UBN7).
T2 construct: purchased Calbiochem 382180
T2 sequence (Q9UBN7 1-1215): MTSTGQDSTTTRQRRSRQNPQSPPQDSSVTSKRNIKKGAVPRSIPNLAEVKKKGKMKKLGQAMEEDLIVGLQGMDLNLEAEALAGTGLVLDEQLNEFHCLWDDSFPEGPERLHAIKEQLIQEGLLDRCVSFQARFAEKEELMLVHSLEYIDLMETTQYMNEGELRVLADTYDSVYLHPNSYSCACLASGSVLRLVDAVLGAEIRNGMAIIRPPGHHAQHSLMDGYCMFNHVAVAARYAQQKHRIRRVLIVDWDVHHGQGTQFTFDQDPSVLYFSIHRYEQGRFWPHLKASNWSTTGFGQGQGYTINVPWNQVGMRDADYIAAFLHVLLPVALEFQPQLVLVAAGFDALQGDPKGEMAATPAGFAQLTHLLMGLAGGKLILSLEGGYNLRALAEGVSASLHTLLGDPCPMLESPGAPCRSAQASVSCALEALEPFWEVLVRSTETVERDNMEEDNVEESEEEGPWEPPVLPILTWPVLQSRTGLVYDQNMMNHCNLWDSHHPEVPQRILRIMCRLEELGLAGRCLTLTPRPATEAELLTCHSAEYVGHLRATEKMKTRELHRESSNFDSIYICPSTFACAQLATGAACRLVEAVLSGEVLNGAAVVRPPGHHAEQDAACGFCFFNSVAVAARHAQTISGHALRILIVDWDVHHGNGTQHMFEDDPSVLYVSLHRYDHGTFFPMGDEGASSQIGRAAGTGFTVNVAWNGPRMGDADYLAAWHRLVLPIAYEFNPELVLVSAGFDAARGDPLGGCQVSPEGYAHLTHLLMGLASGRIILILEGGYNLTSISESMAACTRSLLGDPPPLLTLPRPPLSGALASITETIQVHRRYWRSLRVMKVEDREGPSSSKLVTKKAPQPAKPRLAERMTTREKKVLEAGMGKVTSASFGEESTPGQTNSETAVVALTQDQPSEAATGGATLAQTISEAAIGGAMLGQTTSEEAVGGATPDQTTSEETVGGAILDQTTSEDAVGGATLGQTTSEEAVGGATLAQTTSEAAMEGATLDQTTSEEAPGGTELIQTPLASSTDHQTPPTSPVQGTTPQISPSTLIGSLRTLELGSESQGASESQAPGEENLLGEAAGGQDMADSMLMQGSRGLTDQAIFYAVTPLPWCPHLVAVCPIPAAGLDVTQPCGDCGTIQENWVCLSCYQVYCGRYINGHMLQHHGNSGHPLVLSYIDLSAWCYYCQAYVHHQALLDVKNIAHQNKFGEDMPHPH
Put plainly: HDAC6 enzyme activity inhibition (fluorimetric, in vitro). Type of test: biochemical. The conditions noted are these: samples at 0.1, 1, 10, 100 and 1000 nM. The gist of the method: as §1

The results in this text go back to US20260125370A1, “SULFOXIMINE COMPOUNDS AS HISTONE DEACETYLASE 6 INHIBITOR, AND PHARMACEUTICAL COMPOSITION COMPRISING THE SAME” (CHONG KUN DANG PHARMACEUTICAL CORP., priority 2022, published 2026).

What is called IC50 is the concentration that inhibits the measured activity by half.

T1 sequence (Q13547 whole entry): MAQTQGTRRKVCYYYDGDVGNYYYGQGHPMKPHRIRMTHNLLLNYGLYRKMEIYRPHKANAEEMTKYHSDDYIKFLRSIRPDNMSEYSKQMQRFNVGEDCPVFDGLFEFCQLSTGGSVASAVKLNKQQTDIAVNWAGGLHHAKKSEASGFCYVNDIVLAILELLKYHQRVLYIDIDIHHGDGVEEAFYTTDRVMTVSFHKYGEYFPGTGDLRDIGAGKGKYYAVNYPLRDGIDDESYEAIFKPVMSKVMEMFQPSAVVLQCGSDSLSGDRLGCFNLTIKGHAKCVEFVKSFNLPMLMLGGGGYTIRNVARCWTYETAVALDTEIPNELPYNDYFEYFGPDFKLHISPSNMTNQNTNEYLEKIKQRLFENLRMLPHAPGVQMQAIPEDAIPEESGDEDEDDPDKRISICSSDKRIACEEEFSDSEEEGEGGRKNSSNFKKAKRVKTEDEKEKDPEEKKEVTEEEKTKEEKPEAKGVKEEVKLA

In the case of `N=S1(=O)CCN(S(=O)(=O)N(Cc2ccc(-c3nnc(C(F)F)o3)cn2)c2ccc(F)cc2)CC1` [Compound 76, N-[[5-[5-(difluoromethyl)-1,3,4-oxadiazol-2-yl]-2-pyridyl]methyl]-N-(4-fluorophenyl)-1-imino-1-oxo-1,4-thiazinan-4-sulfonamide], the half-maximal inhibitory concentration (IC50) in test [1] is more than 10000 nM; in test [2], 39.9 nM.
In the same order, the values of `N=S1(=O)CCN(S(=O)(=O)N(Cc2ncc(-c3nnc(C(F)F)o3)cc2F)c2ccc(F)cc2)CC1` [Compound 77, N-[[5-[5-(difluoromethyl)-1,3,4-oxadiazol-2-yl]-3-fluoro-2-pyridyl]methyl]-N-(4-fluorophenyl)-1-imino-1-oxo-1,4-thiazinan-4-sulfonamide] are more than 10000 nM and 51.6 nM.
With `N=S1(=O)CCN(S(=O)(=O)N(Cc2ccc(-c3nnc(C(F)F)o3)cc2F)c2ccc(F)cc2)CC1` [Compound 78, N-[[4-[5-(difluoromethyl)-1,3,4-oxadiazol-2-yl]-2-fluoro-phenyl]methyl]-N-(4-fluorophenyl)-1-imino-1-oxo-1,4-thiazinan-4-sulfonamide], the concentration for half-maximal inhibition (IC50) in test [1] is more than 10000 nM; in test [2], 78.7 nM.
In the case of `O=C(N=S1(=O)CCN(C(=O)N(Cc2ccc(-c3nnc(C(F)F)o3)nn2)c2cccc(F)c2)CC1)OCc1ccccc1` [Compound 79, Benzyl N-[4-[[6-[5-(difluoromethyl)-1,3,4-oxadiazol-2-yl]pyridazin-3-yl]methyl-(3-fluorophenyl)carbamoyl]-1-oxo-1,4-thiazinan-1-ylidene]carbamate], the IC50 in test [1] is more than 10000 nM; in test [2], 87.1 nM.
The corresponding values for `N=S1(=O)CCN(C(=O)N(Cc2ccc(-c3nnc(C(F)F)o3)nn2)c2cccc(F)c2)CC1` [Compound 80, N-[[6-[5-(difluoromethyl)-1,3,4-oxadiazol-2-yl]pyridazin-3-yl]methyl]-N-(3-fluorophenyl)-1-imino-1-oxo-1,4-thiazinan-4-carboxamide] are more than 10000 nM and 146 nM.
The corresponding values for `N=S1(=O)CCN(C(=O)N(Cc2cnc(-c3nnc(C(F)F)o3)cn2)c2cccc(F)c2)CC1` [Compound 81, N-[[5-[5-(difluoromethyl)-1,3,4-oxadiazol-2-yl]pyrazin-2-yl]methyl]-N-(3-fluorophenyl)-1-imino-1-oxo-1,4-thiazinan-4-carboxamide] are more than 10000 nM and 241 nM.
The corresponding values for `CC1CN(C(=O)N(Cc2ccc(-c3nnc(C(F)F)o3)cc2F)c2ccccc2)CCS1(=N)=O` (centres unmarked) [Compound 82, N-[[4-[5-(difluoromethyl)-1,3,4-oxadiazol-2-yl]-2-fluoro-phenyl]methyl]-1-imino-2-methyl-1-oxo-N-phenyl-1,4-thiazinan-4-carboxamide] are more than 10000 nM and 93.1 nM.
For `N=S1(=O)CC(N2CC3(CN(C(=O)N(Cc4ccc(-c5nnc(C(F)F)o5)cc4F)c4ccccc4)C3)C2)C1` (centres unmarked) [Compound 83, N-[[4-[5-(difluoromethyl)-1,3,4-oxadiazol-2-yl]-2-fluoro-phenyl]methyl]-6-(1-imino-1-oxo-thiethan-3-yl)-N-phenyl-2,6-diazaspiro[3.3]heptan-2-carboxamide], the IC50 was more than 10000 nM in test [1] and 71.3 nM in test [2].
The corresponding values for `N=S1(=O)CC(N2C[C@@H]3C[C@H]2CN3C(=O)N(Cc2ccc(-c3nnc(C(F)F)o3)cn2)c2ccccc2)C1` (stereo partly drawn) [Compound 84, (1S,4S)—N-[[5-[5-(difluoromethyl)-1,3,4-oxadiazol-2-yl]-2-pyridyl]methyl]-5-(1-imino-1-oxo-thiethan-3-yl)-N-phenyl-2,5-diazabicyclo[2.2.1]heptan-2-carboxamide] are more than 10000 nM and 56 nM.
As to `CC1CN(C(=O)N(Cc2ccc(-c3nnc(C(F)F)o3)cn2)c2ccccc2)CCS1(=N)=O` (centres unmarked) [Compound 85, N-[[5-[5-(difluoromethyl)-1,3,4-oxadiazol-2-yl]-2-pyridyl]methyl]-1-imino-2-methyl-1-oxo-N-phenyl-1,4-thiazinan-4-carboxamide], the half-maximal inhibitory concentration (IC50) is more than 10000 nM in test [1] and 74.6 nM in test [2].
The corresponding values for `N=S1(=O)CCN(S(=O)(=O)N(Cc2ncc(-c3nnc(C(F)F)o3)s2)c2ccccc2)CC1` [Compound 86, N-[[5-[5-(difluoromethyl)-1,3,4-oxadiazol-2-yl]thiazol-2-yl]methyl]-1-imino-1-oxo-N-phenyl-1,4-thiazinan-4-sulfonamide] are more than 10000 nM and 50.2 nM.
The corresponding values for `N=S1(=O)CC(N2C[C@@H]3C[C@H]2CN3c2c(N(Cc3ccc(-c4nnc(C(F)F)o4)cn3)c3ccccc3)c(=O)c2=O)C1` (stereo partly drawn) [Compound 87, 3-[N-[[5-[5-(difluoromethyl)-1,3,4-oxadiazol-2-yl]-2-pyridyl]methyl]anilino]-4-[(1S,4S)-5-(1-imino-1-oxo-thiethane-3-yl)-2,5-diazabicyclo[2.2.1]heptan-2-yl]cyclobut-3-en-1,2-dione] are more than 10000 nM and 37.4 nM.
For the molecule `N=S1(=O)CC(N2C[C@@H]3C[C@H]2CN3c2c(N(Cc3ccc(-c4nnc(C(F)F)o4)cc3F)c3ccccc3)c(=O)c2=O)C1` (stereo partly drawn) [Compound 89, 3-[N-[[4-[5-(difluoromethyl)-1,3,4-oxadiazol-2-yl]-2-fluoro-phenyl]methyl]anilino]-4-[(1S,4S)-5-(1-imino-1-oxo-thiethan-3-yl)-2,5-diazabicyclo[2.2.1]heptan-2-yl]cyclobut-3-en-1,2-dione], the 50% inhibitory concentration (IC50) is more than 10000 nM in test [1] and 34.1 nM in test [2].
On to `CS(=N)(=O)C1CN(C(=O)N(Cc2ccc(-c3nnc(C(F)F)o3)cn2)c2cccc(F)c2)C1` (centres unmarked) [Compound 90, N-[[5-[5-(difluoromethyl)-1,3,4-oxadiazol-2-yl]-2-pyridyl]methyl]-N-(3-fluorophenyl)-3-(methylsulfonimidoyl)azetidin-1-carboxamide], for which the figures for the half-maximal inhibitory concentration (IC50) in test [1] and in test [2] were more than 10000 nM and 47.3 nM, respectively.
Take `CS(=N)(=O)C1CN(C(=O)N(Cc2ccc(-c3nnc(C(F)F)o3)cc2F)c2cccc(F)c2)C1` (centres unmarked) [Compound 91, N-[[4-[5-(difluoromethyl)-1,3,4-oxadiazol-2-yl]-2-fluoro-phenyl]methyl]-N-(3-fluorophenyl)-3-(methylsulfonimidoyl)azetidin-1-carboxamide]: the figures for the IC50 in test [1] and in test [2] were more than 10000 nM and 46 nM, respectively.
Take `N=S1(=O)CC2(CN(C(=O)N(Cc3ccc(-c4nnc(C(F)F)o4)cc3F)c3ccccc3)C2)C1` [Compound 92, N-[[4-[5-(difluoromethyl)-1,3,4-oxadiazol-2-yl]-2-fluoro-phenyl]methyl]-2-imino-2-oxo-N-phenyl-2lambda6-thia-6-azaspiro[3.3]heptan-6-carboxamide]: the figures for the IC50 in test [1] and in test [2] were more than 10000 nM and 93.9 nM, respectively.
